Data on 21 molecules can be found in ChEMBL document CHEMBL3045946, “Synthesis and biological activity studies of new hybrid molecules containing tryptamine moiety” (2012).

The subject of test [1] is Candida tropicalis. Description: Antifungal activity against Candida tropicalis after 18 hr by agar well diffusion method. The test is classed as functional, organism-based.
Test [2] has as its system Saccharomyces cerevisiae. As to the kind of experiment: Antifungal activity against Saccharomyces cerevisiae RSKK 251 after 18 hr by agar well diffusion method. The test is classed as functional, organism-based.
Test [3] deals with Candida albicans. Description: Antifungal activity against Candida albicans ATCC 60193 after 18 hr by agar well diffusion method. The test is classed as functional, organism-based.
The test system of test [4] is Mycolicibacterium smegmatis. As to the kind of experiment: Antibacterial activity against Mycobacterium smegmatis ATCC 607 after 18 hr by agar well diffusion method. For IZ: test concentration or dose not given here. The test is classed as functional.
Test [5] has as its system Bacillus cereus. As to the kind of experiment: Antibacterial activity against Bacillus cereus 702 Roma after 18 hr by agar well diffusion method. For IZ: test concentration or dose not given here. In kind it is functional.
In test [6] the test system is Enterococcus faecalis. As to the kind of experiment: Antibacterial activity against Enterococcus faecalis ATCC 29212 after 18 hr by agar well diffusion method. In kind it is functional.
Test [7] relates to Staphylococcus aureus. As to the kind of experiment: Antibacterial activity against Staphylococcus aureus ATCC 25923 after 18 hr by agar well diffusion method. In kind it is functional.
For test [8], the system named is Pseudomonas aeruginosa. As to the kind of experiment: Antibacterial activity against Pseudomonas aeruginosa ATCC 43288 after 18 hr by agar well diffusion method. In kind it is functional.

Active and inactive are the calls of the source. No cut-off for these calls is given here.

`Cc1ccc(Cc2nn(CC(=O)N/N=c3\scc(-c4ccc(Cl)cc4)n3-c3ccccc3)c(=O)n2CCc2c[nH]c3ccccc23)cc1`: the result in test [1], in test [2], in test [3], in test [4], in test [5] and in test [6] was inactive. For the same molecule, the result in test [7] and in test [8] was inactive.
As for `O=c1[nH]nc(Cn2nc(Cc3ccc(Cl)cc3)n(CCc3c[nH]c4ccccc34)c2=O)n1Cc1ccccc1`, the outcome in test [1], in test [2], in test [3], in test [6] and in test [7] was inactive. Moreover, the “inhibition zone (IZ)” value is given as 10 mm in test [4], 12 mm in test [5] and 10 mm in test [8].
For `Cc1ccc(Cc2nn(Cc3n[nH]c(=O)n3Cc3ccccc3)c(=O)n2CCc2c[nH]c3ccccc23)cc1`, the result in test [1], in test [2], in test [3], in test [6] and in test [7] was inactive. In addition, the “inhibition zone (IZ)” value in test [4] was 10 mm; in test [5] it was 7 mm; in test [8], 6 mm.
In the case of `O=C(Cn1nc(Cc2ccc(Cl)cc2)n(CCc2c[nH]c3ccccc23)c1=O)N/N=C/c1ccc[nH]1`, the result in test [1], in test [2], in test [3], in test [5], in test [6] and in test [7] was inactive. Further, the result in test [8] was inactive. In addition, in test [4], the “inhibition zone (IZ)” value is on record as 6 mm.
Take `COc1ccc(/C=N/n2c(S)nnc2Cn2nc(Cc3ccc(C)cc3)n(CCc3c[nH]c4ccccc34)c2=O)cc1`: the result in test [1], in test [2], in test [3] and in test [6] was inactive. Moreover, the “inhibition zone (IZ)” value is 6 mm in test [4], 12 mm in test [5], 11 mm in test [7] and 12 mm in test [8].
In the case of `O=C(Cn1nc(Cc2ccc(Cl)cc2)n(CCc2c[nH]c3ccccc23)c1=O)N/N=c1\occ(-c2ccc(Cl)cc2)n1Cc1ccccc1`, the outcome in test [1], in test [2], in test [3], in test [4], in test [6] and in test [8] was inactive. Also, the “inhibition zone (IZ)” value in test [5] was 6 mm; in test [7], 5 mm.
Regarding `CN[C@@H]1[C@H](O[C@H]2[C@H](O[C@H]3[C@H](O)[C@@H](O)[C@H](N=C(N)N)[C@@H](O)[C@@H]3N=C(N)N)O[C@@H](C)[C@]2(O)C=O)O[C@@H](CO)[C@H](O)[C@H]1O` [STREPTOMYCIN], the “inhibition zone (IZ)” value in test [4] was 35 mm.
As for `Cc1ccc(Cc2nn(Cc3nnc(S)o3)c(=O)n2CCc2c[nH]c3ccccc23)cc1`, the result in test [1], in test [2], in test [3] and in test [8] was inactive. For the same molecule, the “inhibition zone (IZ)” value in test [4] came to 8 mm; in test [5], 8 mm; in test [6], 12 mm; in test [7], 12 mm.
For the molecule `COc1ccc(/C=N/NC(=O)Cn2nc(Cc3ccc(Cl)cc3)n(CCc3c[nH]c4ccccc34)c2=O)cc1`, the result in test [1], in test [2], in test [3], in test [4], in test [5] and in test [6] was inactive. Also, the result in test [7] and in test [8] was inactive.
Consider `O=c1n(Cc2nnc(S)o2)nc(Cc2ccc(Cl)cc2)n1CCc1c[nH]c2ccccc12`, for which the result in test [1], in test [2], in test [3], in test [4] and in test [8] was inactive. Also, the figures for the “inhibition zone (IZ)” value in test [5], in test [6] and in test [7] were 6 mm, 10 mm and 8 mm, respectively.
Regarding `O=C(Cn1nc(Cc2ccc(Cl)cc2)n(CCc2c[nH]c3ccccc23)c1=O)NNS(=O)(=O)c1ccc(Cl)cc1`, the result in test [1], in test [2] and in test [3] was inactive. Further, the “inhibition zone (IZ)” value in test [4] came out at 14 mm; in test [5], 12 mm; in test [7], 11 mm; in test [8], 12 mm.
In the case of `Cc1ccc(Cc2nn(CC(=O)NNS(=O)(=O)c3ccc(Cl)cc3)c(=O)n2CCc2c[nH]c3ccccc23)cc1`, the result in test [1], in test [2], in test [3] and in test [6] was inactive. In addition, the “inhibition zone (IZ)” value in test [4] is given as 9 mm; in test [5], 10 mm; in test [7], 7 mm; in test [8] it was 10 mm.
As to `Cc1ccc(Cc2nn(CC(=O)NNC(=S)Nc3ccccc3)c(=O)n2CCc2c[nH]c3ccccc23)cc1`, the result in test [1], in test [2], in test [3], in test [4], in test [5] and in test [6] was inactive. The outcome in test [7] and in test [8] was inactive.
For `O=C(Cn1nc(Cc2ccc(Cl)cc2)n(CCc2c[nH]c3ccccc23)c1=O)NNS(=O)(=O)c1ccc(Br)cc1`, the outcome in test [1], in test [2], in test [3] and in test [6] was inactive. Also, the “inhibition zone (IZ)” value in test [4] is on record as 9 mm; in test [5], 12 mm; in test [7] it was 8 mm; in test [8], 12 mm.
Turning to `COc1ccc(/C=N/NC(=O)Cn2nc(Cc3ccc(C)cc3)n(CCc3c[nH]c4ccccc34)c2=O)cc1`, the result in test [1], in test [2], in test [3], in test [4], in test [5] and in test [6] was inactive. Besides, the result in test [7] and in test [8] was inactive.
For the molecule `Nn1c(S)nnc1Cn1nc(Cc2ccc(Cl)cc2)n(CCc2c[nH]c3ccccc23)c1=O`, the outcome in test [1], in test [2], in test [3], in test [6], in test [7] and in test [8] was inactive. Moreover, the “inhibition zone (IZ)” value in test [4] and in test [5] was 7 mm each time.
As to `Cc1ccc(Cc2nn(CC(=O)N/N=C/c3ccccn3)c(=O)n2CCc2c[nH]c3ccccc23)cc1`, the result in test [1], in test [2], in test [3], in test [4], in test [5] and in test [6] was inactive. The result in test [7] and in test [8] was inactive.
In the case of `Cc1ccc(Cc2nn(CC(=O)NNS(=O)(=O)c3ccc(Br)cc3)c(=O)n2CCc2c[nH]c3ccccc23)cc1`, the outcome in test [1], in test [2], in test [3], in test [6] and in test [7] was inactive. The “inhibition zone (IZ)” value in test [4] turned out to be 7 mm; in test [5] it was 8 mm; in test [8] it was 10 mm.
As for `O=C(Cn1nc(Cc2ccc(Cl)cc2)n(CCc2c[nH]c3ccccc23)c1=O)N/N=C/Cc1ccccc1`, the outcome in test [1], in test [2], in test [3], in test [4], in test [5] and in test [6] was inactive. In addition, the outcome in test [7] and in test [8] was inactive.
As for `Cc1ccc(Cc2nn(CC(=O)N/N=C/c3ccc[nH]3)c(=O)n2CCc2c[nH]c3ccccc23)cc1`, the outcome in test [1], in test [2], in test [3], in test [4], in test [5] and in test [6] was inactive. Moreover, the result in test [7] and in test [8] was inactive.
In the case of `Cc1ccc(Cc2nn(Cc3nnc(S)n3N)c(=O)n2CCc2c[nH]c3ccccc23)cc1`, the result in test [1], in test [2], in test [3], in test [6], in test [7] and in test [8] was inactive. Further, the results for the “inhibition zone (IZ)” value in test [4] and in test [5] were 6 mm and 7 mm, respectively.
